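Briefly, cells in 96-well plates were exposed to five compound concentrations for 48 h, and endpoints were estimated by linear interpolation. GI50 marks 50% less growth. TGI denotes the concentration required for complete inhibition of growth.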
What was measured:
Experiment in all cases: inhibition of tumour cell growth, NCI panel, 48 h
786-0 renal = test system: 786-0 renal
OVCAR-4 ovarian = test system: OVCAR-4 ovarian
HOP-62 NSCLC = test system: HOP-62 NSCLC
MDA-MB-435 = test system: MDA-MB-435
SR leukemia = test system: SR leukemia
RXF 393 renal = test system: RXF 393 renal
K-562 leukemia = test system: K-562 leukemia
SNB-75 CNS = test system: SNB-75 CNS
SK-MEL-2 melanoma = test system: SK-MEL-2 melanoma
NCI-H522 lung = test system: NCI-H522 lung
NCI-H23 lung = test system: NCI-H23 lung
SF-539 CNS = test system: SF-539 CNS
UACC-257 melanoma = test system: UACC-257 melanoma
OVCAR-3 ovarian = test system: OVCAR-3 ovarian
OVCAR-8 ovarian = test system: OVCAR-8 ovarian
MDA-MB-231 breast = test system: MDA-MB-231 breast
OVCAR-5 ovarian = test system: OVCAR-5 ovarian
ACHN renal = test system: ACHN renal
SW-620 colon = test system: SW-620 colon
UO-31 renal = test system: UO-31 renal
DU-145 prostate = test system: DU-145 prostate
T-47D breast = test system: T-47D breast
SK-OV-3 ovarian = test system: SK-OV-3 ovarian
SK-MEL-28 melanoma = test system: SK-MEL-28 melanoma
UACC-62 melanoma = test system: UACC-62 melanoma
SN12C renal = test system: SN12C renal
TK-10 renal = test system: TK-10 renal
U251 CNS = test system: U251 CNS
SNB-19 CNS = test system: SNB-19 CNS
A549 NSCLC = test system: A549 NSCLC
HCT-15 colon = test system: HCT-15 colon
HOP-92 NSCLC = test system: HOP-92 NSCLC
MCF7 breast = test system: MCF7 breast
MALME-3M melanoma = test system: MALME-3M melanoma
SK-MEL-5 melanoma = test system: SK-MEL-5 melanoma
HT29 colon = test system: HT29 colon
MOLT-4 leukemia = test system: MOLT-4 leukemia
SF-268 CNS = test system: SF-268 CNS
PC-3 prostate = test system: PC-3 prostate
NCI-H460 lung = test system: NCI-H460 lung
EKVX NSCLC = test system: EKVX NSCLC
KM12 colon = test system: KM12 colon
HL-60(TB) leukemia = test system: HL-60(TB) leukemia
CAKI-1 renal = test system: CAKI-1 renal
BT-549 breast = test system: BT-549 breast
SF-295 CNS = test system: SF-295 CNS
LOX IMVI melanoma = test system: LOX IMVI melanoma
HCT-116 colon = test system: HCT-116 colon
HS 578T breast = test system: HS 578T breast
IGROV1 ovarian = test system: IGROV1 ovarian
M14 melanoma = test system: M14 melanoma
COLO 205 colon = test system: COLO 205 colon
NCI/ADR-RES ovarian = test system: NCI/ADR-RES ovarian
NCI-H226 lung = test system: NCI-H226 lung
A498 renal = test system: A498 renal
RPMI-8226 leukemia = test system: RPMI-8226 leukemia
CCRF-CEM leukemia = test system: CCRF-CEM leukemia

SMILES: O=C(CSc1nccc(=O)[nH]1)c1ccccc1
- TGI (786-0 renal): > 100 µM
- TGI (OVCAR-4 ovarian): > 100 µM
- TGI (HOP-62 NSCLC): > 100 µM
- TGI (MDA-MB-435): > 100 µM
- TGI (SR leukemia): > 100 µM
- TGI (RXF 393 renal): > 100 µM
- TGI (K-562 leukemia): > 100 µM
- TGI (SNB-75 CNS): > 100 µM
- TGI (SK-MEL-2 melanoma): > 100 µM
- TGI (NCI-H522 lung): > 100 µM
- TGI (NCI-H23 lung): > 100 µM
- TGI (SF-539 CNS): > 100 µM
- TGI (UACC-257 melanoma): > 100 µM
- TGI (OVCAR-3 ovarian): > 100 µM
- TGI (OVCAR-8 ovarian): > 100 µM
- TGI (MDA-MB-231 breast): > 100 µM
- TGI (OVCAR-5 ovarian): > 100 µM
- TGI (ACHN renal): > 100 µM
- TGI (SW-620 colon): > 100 µM
- TGI (UO-31 renal): > 100 µM
- TGI (DU-145 prostate): > 100 µM
- TGI (T-47D breast): > 100 µM
- TGI (SK-OV-3 ovarian): > 100 µM
- TGI (SK-MEL-28 melanoma): > 100 µM
- TGI (UACC-62 melanoma): > 100 µM
- TGI (SN12C renal): > 100 µM
- TGI (TK-10 renal): > 100 µM
- TGI (U251 CNS): > 100 µM
- TGI (SNB-19 CNS): > 100 µM
- TGI (A549 NSCLC): > 100 µM
- TGI (HCT-15 colon): > 100 µM
- TGI (HOP-92 NSCLC): > 100 µM
- TGI (MCF7 breast): > 100 µM
- TGI (MALME-3M melanoma): > 100 µM
- TGI (SK-MEL-5 melanoma): > 100 µM
- TGI (HT29 colon): > 100 µM
- TGI (MOLT-4 leukemia): > 100 µM
- TGI (SF-268 CNS): > 100 µM
- TGI (PC-3 prostate): > 100 µM
- TGI (NCI-H460 lung): > 100 µM
- TGI (EKVX NSCLC): > 100 µM
- TGI (KM12 colon): > 100 µM
- TGI (HL-60(TB) leukemia): > 100 µM
- TGI (CAKI-1 renal): > 100 µM
- TGI (BT-549 breast): > 100 µM
- TGI (SF-295 CNS): > 100 µM
- TGI (LOX IMVI melanoma): > 100 µM
- TGI (HCT-116 colon): > 100 µM
- TGI (HS 578T breast): > 100 µM
- TGI (IGROV1 ovarian): > 100 µM
- TGI (M14 melanoma): > 100 µM
- TGI (COLO 205 colon): > 100 µM
- TGI (NCI/ADR-RES ovarian): > 100 µM

SMILES: COc1ccc2c(c1)OCC1c3cc(O)ccc3OC21 (stereo not given)
- GI50 (786-0 renal): 78.9 µM
- TGI (786-0 renal): > 100 µM
- GI50 (OVCAR-4 ovarian): 28.1 µM
- TGI (OVCAR-4 ovarian): > 100 µM
- GI50 (HOP-62 NSCLC): > 100 µM
- TGI (HOP-62 NSCLC): > 100 µM
- GI50 (MDA-MB-435): 44.8 µM
- TGI (MDA-MB-435): > 100 µM
- GI50 (SR leukemia): 46.3 µM
- TGI (SR leukemia): > 100 µM
- GI50 (RXF 393 renal): 72.6 µM
- TGI (RXF 393 renal): > 100 µM
- GI50 (K-562 leukemia): 63.5 µM
- TGI (K-562 leukemia): > 100 µM
- GI50 (SNB-75 CNS): 34 µM
- TGI (SNB-75 CNS): > 100 µM
- GI50 (SK-MEL-2 melanoma): > 100 µM
- TGI (SK-MEL-2 melanoma): > 100 µM
- GI50 (NCI-H226 lung): 18.6 µM
- TGI (NCI-H226 lung): > 100 µM
- GI50 (NCI-H23 lung): 30.1 µM
- TGI (NCI-H23 lung): > 100 µM
- GI50 (SF-539 CNS): 54.5 µM
- TGI (SF-539 CNS): > 100 µM
- GI50 (UACC-257 melanoma): 78.3 µM
- TGI (UACC-257 melanoma): > 100 µM
- GI50 (OVCAR-3 ovarian): 27 µM
- TGI (OVCAR-3 ovarian): > 100 µM
- GI50 (A498 renal): 40.2 µM
- TGI (A498 renal): > 100 µM
- GI50 (OVCAR-8 ovarian): > 100 µM
- TGI (OVCAR-8 ovarian): > 100 µM
- GI50 (MDA-MB-231 breast): 13.7 µM
- TGI (MDA-MB-231 breast): 92.2 µM
- GI50 (RPMI-8226 leukemia): 32.8 µM
- TGI (RPMI-8226 leukemia): > 100 µM
- GI50 (OVCAR-5 ovarian): 39.5 µM
- TGI (OVCAR-5 ovarian): > 100 µM
- GI50 (ACHN renal): 35.8 µM
- TGI (ACHN renal): > 100 µM
- GI50 (SW-620 colon): > 100 µM
- TGI (SW-620 colon): > 100 µM
- GI50 (UO-31 renal): 24.3 µM
- TGI (UO-31 renal): > 100 µM
- GI50 (DU-145 prostate): 75.8 µM
- TGI (DU-145 prostate): > 100 µM
- GI50 (T-47D breast): 16.2 µM
- TGI (T-47D breast): 65.4 µM
- GI50 (SK-OV-3 ovarian): 63.2 µM
- TGI (SK-OV-3 ovarian): > 100 µM
- GI50 (SK-MEL-28 melanoma): > 100 µM
- TGI (SK-MEL-28 melanoma): > 100 µM
- GI50 (UACC-62 melanoma): 35.9 µM
- TGI (UACC-62 melanoma): > 100 µM
- GI50 (SN12C renal): 73.3 µM
- TGI (SN12C renal): > 100 µM
- GI50 (TK-10 renal): 38.9 µM
- TGI (TK-10 renal): > 100 µM
- GI50 (U251 CNS): 54.9 µM
- TGI (U251 CNS): > 100 µM
- GI50 (SNB-19 CNS): 52.1 µM
- TGI (SNB-19 CNS): > 100 µM
- GI50 (A549 NSCLC): 60.9 µM
- TGI (A549 NSCLC): > 100 µM
- GI50 (HCT-15 colon): 40.6 µM
- TGI (HCT-15 colon): > 100 µM
- GI50 (HOP-92 NSCLC): 39.6 µM
- TGI (HOP-92 NSCLC): > 100 µM
- GI50 (MCF7 breast): 12.8 µM
- TGI (MCF7 breast): 86.4 µM
- GI50 (MALME-3M melanoma): 60.2 µM
- TGI (MALME-3M melanoma): > 100 µM
- GI50 (SK-MEL-5 melanoma): 33 µM
- TGI (SK-MEL-5 melanoma): > 100 µM
- GI50 (HT29 colon): 47.5 µM
- TGI (HT29 colon): > 100 µM
- GI50 (MOLT-4 leukemia): 35.4 µM
- TGI (MOLT-4 leukemia): > 100 µM
- GI50 (SF-268 CNS): 11 µM
- TGI (SF-268 CNS): 74 µM
- GI50 (PC-3 prostate): 34.4 µM
- TGI (PC-3 prostate): > 100 µM
- GI50 (NCI-H460 lung): 25 µM
- TGI (NCI-H460 lung): > 100 µM
- GI50 (EKVX NSCLC): 27.8 µM
- TGI (EKVX NSCLC): > 100 µM
- GI50 (KM12 colon): 38.7 µM
- TGI (KM12 colon): > 100 µM
- GI50 (HL-60(TB) leukemia): 3.16 µM
- TGI (HL-60(TB) leukemia): 27.3 µM
- GI50 (CAKI-1 renal): 32.5 µM
- TGI (CAKI-1 renal): > 100 µM
- GI50 (BT-549 breast): 39 µM
- TGI (BT-549 breast): > 100 µM
- GI50 (SF-295 CNS): 9.91 µM
- TGI (SF-295 CNS): 90.9 µM
- GI50 (LOX IMVI melanoma): 42.1 µM
- TGI (LOX IMVI melanoma): > 100 µM
- GI50 (HCT-116 colon): 51.4 µM
- TGI (HCT-116 colon): > 100 µM
- GI50 (HS 578T breast): 41.2 µM
- TGI (HS 578T breast): > 100 µM
- GI50 (IGROV1 ovarian): 36 µM
- TGI (IGROV1 ovarian): 99.4 µM
- GI50 (CCRF-CEM leukemia): 25.1 µM
- TGI (CCRF-CEM leukemia): > 100 µM
- GI50 (M14 melanoma): 72.5 µM
- TGI (M14 melanoma): > 100 µM
- GI50 (COLO 205 colon): 32.7 µM
- TGI (COLO 205 colon): > 100 µM
- GI50 (NCI/ADR-RES ovarian): 33.2 µM
- TGI (NCI/ADR-RES ovarian): > 100 µM
